US7078428B2, “Isoindolone derivatives, preparation process and intermediates of this process, their use as medicaments, and pharmaceutical compositions comprising them” (Sanofi-Aventis Deutschland GmbH, priority 2002, dated 2006)

Assays:
NHE1 = target: T1, NHE1 (Homo sapiens, UniProt P19634); experiment: NHE inhibition FLIPR test (intracellular pH recovery, BCECF) in transfected LAP-1 cells; assay type: cell-based; conditions: transfected cell line (parental LAP-1) expressing the NHE-1 subtype, pHi recovery after acidification
T1 construct: expressed in transfected cells
T1 sequence (P19634 whole entry, species assumed): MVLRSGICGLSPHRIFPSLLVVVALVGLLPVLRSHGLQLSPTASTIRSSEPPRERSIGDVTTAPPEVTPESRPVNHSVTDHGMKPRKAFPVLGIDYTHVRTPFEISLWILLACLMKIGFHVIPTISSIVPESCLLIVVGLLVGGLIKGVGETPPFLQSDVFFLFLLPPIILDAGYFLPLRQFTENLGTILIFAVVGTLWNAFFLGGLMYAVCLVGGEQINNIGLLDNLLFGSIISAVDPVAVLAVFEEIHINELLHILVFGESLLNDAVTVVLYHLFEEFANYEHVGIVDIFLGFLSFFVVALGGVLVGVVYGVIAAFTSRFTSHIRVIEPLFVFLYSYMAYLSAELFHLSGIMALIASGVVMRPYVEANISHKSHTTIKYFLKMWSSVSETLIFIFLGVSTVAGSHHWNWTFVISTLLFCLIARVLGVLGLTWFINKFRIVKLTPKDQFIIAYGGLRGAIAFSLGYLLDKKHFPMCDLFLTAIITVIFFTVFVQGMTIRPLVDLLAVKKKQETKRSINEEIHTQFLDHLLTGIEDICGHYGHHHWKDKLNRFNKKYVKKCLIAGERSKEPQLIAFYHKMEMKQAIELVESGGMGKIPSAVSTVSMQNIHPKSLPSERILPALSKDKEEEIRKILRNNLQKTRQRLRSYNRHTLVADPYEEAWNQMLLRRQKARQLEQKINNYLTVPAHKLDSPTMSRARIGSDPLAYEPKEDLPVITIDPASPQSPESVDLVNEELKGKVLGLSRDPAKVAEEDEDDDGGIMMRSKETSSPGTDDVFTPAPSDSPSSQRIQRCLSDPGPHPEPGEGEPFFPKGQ
Method: The NHE inhibitory activities (IC50 values) of the compounds according to the invention were determined by a FLIPR test.
The test is performed in the FLIPR (Fluorescent Imaging Plate Reader) equipped with clear-bottomed and black-walled 96-well microtitration plates.
The growth medium for the transfected cells (Iscove +10% foetal calf serum) also comprises G418 as selection antibiotic to ensure the presence of transfected sequences.
The actual test begins by eliminating the growth medium and adding 100 μl of loading buffer per well (5 μM of BCECF-AM [2′,7′-bis(2-carboxyethyl)-5-(6)-carboxyfluoresceine acetoxymethyl ester] in 20 mM of NH4Cl, 115 mM of choline chloride, 1 mM of CaCl2, 5 mM of KCl, 20 mM of HEPES and 5 mM of glucose; pH 7.4 (adjusted with KOH). The cells are then incubated for 20 minutes at 37° C. This incubation results in the loading of the fluorescent dye into the cells, the fluorescence intensity of which depends on the pHi, and on the NH4Cl, which results in a slight basification of the cells.
The precursor BCECF-AM, a non-fluorescent dye, is, as an ester, capable of crossing the membrane. The actual dye, which is incapable of crossing the membrane, is released inside the cell by esterases.
After this 20-minute incubation, the loading buffer, which comprises NH4Cl and free BCECF-AM, is removed by washing three times in the cell washing device (Tecan Columbus), each wash being performed with 400 μl of washing buffer (133.8 mM of choline chloride, 4.7 mM of KCl, 1.25 mM of MgCl2, 1.25 mM of CaCl2, 0.97 mM of K2HPO4, 0.23 mM of KH2PO4, 5 mM of HEPES and 5 mM of glucose; pH 7.4 (adjusted with KOH)). The residual volume remaining in the wells is 90 μl (possibly between 50 and 125 μl). This washing step removes the free BCECF-AM and results in an intracellular acidification (pHi of 6.3-6.4) due to the removal of the external ammonium ions.
As the equilibrium of the intracellular ammonium with the aqueous ammonia and the protons, by removal of the extracellular ammonium and by the subsequent immediate crossing of the aqueous ammonia across the cell membrane, is disrupted, the washing process results in intracellular protons remaining, which is the cause of the intracellular acidification. This acidification can result finally in the death of the cells if it lasts long enough. It is important here for the washing buffer to be free of sodium (<1 mM), otherwise the extracellular sodium ions would result in an immediate increase in the pHi on account of the activity of the cloned NHE isoforms. It is also important for all the buffers used (loading buffer, washing buffer and regeneration buffer) not to contain any HCO3-ions, otherwise the presence of bicarbonate would result in the activation of bicarbonate-dependent systems that disrupt the pHi regulation, which systems are contained in the LAP-1 parental cell line.
The microtiter plates containing acidified cells are then transferred (up to 20 minutes after the acidification) to the FLIPR. In the FLIPR, the intracellular fluorescent dye is activated with light of a wavelength of 488 nm, which is generated by an argon laser, and the measuring parameters (laser power, illumination time and diaphragm of the […] camera integrated into the FLIPR) are chosen such that the average value of the fluorescent signal per well is between 30,000 and 35,000 relative fluorescence units.
The actual measurement in the FLIPR starts with a photograph being taken by the CCD camera every two seconds under software control. After 10 seconds, the increase in the intracellular pH is initiated by adding 90 μl of regeneration buffer (133.8 mM of NaCl, 4.7 mM of KCl, 1.25 mM of MgCl2, 1.25 mM of CaCl2, 0.97 mM of K2HPO4, 0.23 mM of KH2PO4, 10 mM of HEPES and 5 mM of glucose; pH 7.4 (adjusted with NaOH)) using a 96-well pipette device incorporated into the FLIPR. Some wells, to which is added pure regeneration buffer, serve as positive controls (100% NHE activity). […]

| IC50 (NHE1) | melting point | SMILES |
| --- | --- | --- |
| 63 nM | 229 °C | NC(N)=NC(=O)CC1c2ccccc2C(=O)N1CC1CC1 (stereo not shown) [Example 8, N-[2-(2-Cyclopropylmethyl-3-oxo-2,3-dihydro-1H-isoindol-1-yl)acetyl]guanidine] |
| 15 nM | 214 to 215 °C | CC(C)CN1C(=O)c2ccc(C(C)(C)C)cc2C1CC(=O)N=C(N)N (stereo not shown) [Example 10, N-[2-(6-tert-Butyl-2-isobutyl-3-oxo-2,3-dihydro-1H-isoindol-1-yl)acetyl]guanidine] |
| 11 nM | 262 to 263 °C | CC(C)CN1C(=O)c2cc(C(C)(C)C)ccc2C1CC(=O)N=C(N)N (stereo not shown) [Example 11, N-[2-(5-tert-Butyl-2-isobutyl-3-oxo-2,3-dihydro-1H-isoindol-1-yl)acetyl]guanidine] |
| 102 nM | 224 °C | CC(C)CN1C(=O)c2cc(C(F)(F)F)ccc2C1CC(=O)N=C(N)N (stereo not shown) [Example 14, N-[2-(2-Isobutyl-3-oxo-5-trifluoromethyl-2,3-dihydro-1H-isoindol-1-yl)-acetyl]-guanidine] |
| 16 nM | 154 °C | CC(C)CN1C(=O)c2ccc(C(F)(F)F)cc2C1CC(=O)N=C(N)N (stereo not shown) [Example 15, N-[2-(2-Isobutyl-3-oxo-6-trifluoromethyl-2,3-dihydro-1H-isoindol-1-yl)-acetyl]guanidine] |
| 26 nM | 154 °C | CC(C)CN1C(=O)c2cc(Cl)c(Cl)cc2C1CC(=O)N=C(N)N (stereo not shown) [Example 18, N-[2-(5,6-Dichloro-2-isobutyl-3-oxo-2,3-dihydro-1H-isoindol-1-yl)acetyl]guanidine] |
| 11 nM | 212 °C | CC(C)CN1C(=O)c2c(F)ccc(F)c2C1CC(=O)N=C(N)N (stereo not shown) [Example 19, N-[2-(4,7-Difluoro-2-isobutyl-3-oxo-2,3-dihydro-1H-isoindol-1-yl)acetyl]guanidine] |
| 25 nM | 266 °C | Cc1ccc2c(c1)C(=O)N(CC(C)C)C2CC(=O)N=C(N)N (stereo not shown) [Example 34, N-[2-(2-Isobutyl-5-methyl-3-oxo-2,3-dihydro-1H-isoindol-1-yl)acetyl]guanidine] |
